Where two headings read alike, the source gives them in different places. Peptide text beside a SMILES is read from it.

Format in all cases: cell-based
One assay addresses T1, human GIP receptor (Homo sapiens, UniProt P48546).
T1 construct: expressed in transfected cells; host or cells: PSC-HEK-293
T1 sequence (P48546 22-466): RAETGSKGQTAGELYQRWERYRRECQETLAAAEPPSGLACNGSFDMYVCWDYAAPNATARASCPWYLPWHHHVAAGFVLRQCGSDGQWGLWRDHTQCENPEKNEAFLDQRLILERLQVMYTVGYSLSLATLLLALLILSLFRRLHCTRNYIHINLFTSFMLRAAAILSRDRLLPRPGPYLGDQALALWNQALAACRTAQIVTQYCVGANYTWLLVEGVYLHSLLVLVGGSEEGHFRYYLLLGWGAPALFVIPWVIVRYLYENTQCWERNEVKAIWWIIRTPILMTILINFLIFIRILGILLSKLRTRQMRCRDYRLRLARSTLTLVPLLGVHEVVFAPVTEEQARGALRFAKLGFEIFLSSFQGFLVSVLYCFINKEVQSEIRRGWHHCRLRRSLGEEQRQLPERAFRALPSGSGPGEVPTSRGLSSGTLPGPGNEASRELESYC
Description: HTRF cAMP assay in HEK-293 cells expressing human GIP receptor. (In general: Time-resolved FRET reads energy transfer from a long-lived donor to a nearby acceptor.)

For a further assay, the target named is T2, human GLP-1 receptor (Homo sapiens, UniProt P43220).
T2 construct: expressed in transfected cells; host or cells: PSC-HEK-293
T2 sequence (P43220 24-463): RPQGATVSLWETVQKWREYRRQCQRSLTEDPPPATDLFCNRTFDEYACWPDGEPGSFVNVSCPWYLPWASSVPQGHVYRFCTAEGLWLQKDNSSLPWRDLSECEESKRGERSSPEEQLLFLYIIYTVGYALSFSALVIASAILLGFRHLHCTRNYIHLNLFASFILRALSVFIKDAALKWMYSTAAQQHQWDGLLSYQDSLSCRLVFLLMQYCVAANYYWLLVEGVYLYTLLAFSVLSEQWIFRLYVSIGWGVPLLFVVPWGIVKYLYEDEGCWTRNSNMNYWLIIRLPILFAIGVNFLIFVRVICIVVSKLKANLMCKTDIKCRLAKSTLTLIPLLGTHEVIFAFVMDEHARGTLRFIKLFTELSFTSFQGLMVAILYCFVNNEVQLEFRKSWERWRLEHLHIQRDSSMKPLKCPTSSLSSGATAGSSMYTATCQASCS
Description: HTRF cAMP assay in HEK-293 cells expressing human GLP-1 receptor.

Assay [1] deals with T3, human glucagon (GCG) receptor (Homo sapiens, UniProt P47871).
T3 construct: expressed in transfected cells; host or cells: PSC-HEK-293
T3 sequence (P47871 26-477): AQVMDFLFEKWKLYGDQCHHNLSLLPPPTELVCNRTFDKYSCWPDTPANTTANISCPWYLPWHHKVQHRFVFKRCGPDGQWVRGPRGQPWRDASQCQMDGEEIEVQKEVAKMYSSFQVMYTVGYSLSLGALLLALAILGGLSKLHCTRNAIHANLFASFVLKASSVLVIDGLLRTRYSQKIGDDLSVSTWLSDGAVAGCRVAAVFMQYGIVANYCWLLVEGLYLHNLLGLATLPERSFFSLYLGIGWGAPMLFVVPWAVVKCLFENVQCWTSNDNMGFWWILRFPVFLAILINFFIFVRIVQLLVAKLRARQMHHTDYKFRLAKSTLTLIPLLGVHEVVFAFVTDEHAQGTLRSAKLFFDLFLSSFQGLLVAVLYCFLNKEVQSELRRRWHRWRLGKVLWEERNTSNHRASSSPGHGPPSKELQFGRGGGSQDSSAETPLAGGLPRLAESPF
Description: HTRF cAMP assay in HEK-293 cells expressing human glucagon receptor.

For assay [2], the target named is T4, FGFR1c and co-receptor beta-Klotho (KLB) (Homo sapiens, UniProt P11362+Q86Z14).
T4 construct: host or cells: iLite FGF21 Assay Ready Cells (HEK293)
T4 sequence (Q86Z14 53-1044 limits assumed): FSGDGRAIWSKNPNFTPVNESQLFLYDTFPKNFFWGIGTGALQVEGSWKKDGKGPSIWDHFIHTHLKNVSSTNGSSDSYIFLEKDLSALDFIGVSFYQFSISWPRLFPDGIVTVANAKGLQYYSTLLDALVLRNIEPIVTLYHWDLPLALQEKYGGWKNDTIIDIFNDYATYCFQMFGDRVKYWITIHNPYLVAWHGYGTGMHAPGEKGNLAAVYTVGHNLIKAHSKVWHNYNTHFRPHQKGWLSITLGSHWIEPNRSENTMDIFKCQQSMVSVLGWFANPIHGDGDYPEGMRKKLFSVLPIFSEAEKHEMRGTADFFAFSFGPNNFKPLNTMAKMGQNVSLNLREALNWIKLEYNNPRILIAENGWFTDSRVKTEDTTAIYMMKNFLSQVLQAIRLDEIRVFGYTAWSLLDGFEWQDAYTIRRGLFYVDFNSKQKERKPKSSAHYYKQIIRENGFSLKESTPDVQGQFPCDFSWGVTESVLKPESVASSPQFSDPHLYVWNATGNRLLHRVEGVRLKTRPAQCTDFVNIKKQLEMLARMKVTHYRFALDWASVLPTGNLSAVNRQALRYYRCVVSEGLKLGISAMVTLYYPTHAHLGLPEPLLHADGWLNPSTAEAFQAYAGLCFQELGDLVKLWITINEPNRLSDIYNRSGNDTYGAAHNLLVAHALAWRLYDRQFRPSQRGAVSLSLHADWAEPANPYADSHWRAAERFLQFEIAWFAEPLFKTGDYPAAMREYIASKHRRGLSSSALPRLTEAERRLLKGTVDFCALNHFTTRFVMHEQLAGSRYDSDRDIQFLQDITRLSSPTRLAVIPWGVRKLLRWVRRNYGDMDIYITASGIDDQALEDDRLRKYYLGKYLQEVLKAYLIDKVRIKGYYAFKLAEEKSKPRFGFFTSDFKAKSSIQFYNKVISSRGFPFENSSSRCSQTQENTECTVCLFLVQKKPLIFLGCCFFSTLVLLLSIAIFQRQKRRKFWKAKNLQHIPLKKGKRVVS
T4 sequence (P11362 22-820 isoform P11362-2 limits assumed): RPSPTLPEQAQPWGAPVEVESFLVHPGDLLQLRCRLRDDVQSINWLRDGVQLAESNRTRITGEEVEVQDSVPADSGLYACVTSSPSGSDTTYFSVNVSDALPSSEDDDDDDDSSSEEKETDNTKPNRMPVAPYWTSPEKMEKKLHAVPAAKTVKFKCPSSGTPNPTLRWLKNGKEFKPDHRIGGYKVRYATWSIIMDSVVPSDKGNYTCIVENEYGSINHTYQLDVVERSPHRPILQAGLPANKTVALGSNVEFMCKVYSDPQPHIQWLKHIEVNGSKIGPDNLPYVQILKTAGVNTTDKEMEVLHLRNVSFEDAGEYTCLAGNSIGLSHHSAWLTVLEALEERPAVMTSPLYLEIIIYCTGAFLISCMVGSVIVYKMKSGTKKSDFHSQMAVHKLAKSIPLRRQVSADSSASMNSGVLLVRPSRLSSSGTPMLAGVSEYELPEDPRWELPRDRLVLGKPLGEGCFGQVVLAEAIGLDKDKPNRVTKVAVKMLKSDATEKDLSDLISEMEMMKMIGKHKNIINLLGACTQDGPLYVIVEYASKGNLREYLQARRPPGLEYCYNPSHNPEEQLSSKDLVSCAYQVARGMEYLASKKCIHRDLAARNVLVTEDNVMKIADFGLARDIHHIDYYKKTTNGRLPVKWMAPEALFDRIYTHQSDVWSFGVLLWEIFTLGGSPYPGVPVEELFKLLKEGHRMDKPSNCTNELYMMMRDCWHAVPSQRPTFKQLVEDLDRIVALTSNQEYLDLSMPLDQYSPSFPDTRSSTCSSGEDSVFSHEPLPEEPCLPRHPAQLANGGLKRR
Briefly: Luciferase reporter gene assay (iLite FGF21 Assay Ready Cells), FGF21-like signaling. The note with it: monovalent Fab versus bivalent antibody.

The mark [3] stands for this setting: HEK-293 cells, read-out: HTRF cAMP EC50 Human GIPR.
The mark [4] stands for this setting: HEK-293 cells, read-out: HTRF cAMP EC50 Human GLP-1R.
[5] abbreviates: HEK-293 cells, read-out: HTRF cAMP EC50 Human GCGR.

Turning to `CC[C@H](C)[C@H](NC(=O)[C@H](CC(C)C)NC(=O)[C@H](Cc1c[nH]c2ccccc12)NC(=O)[C@H](Cc1ccc(O)cc1)NC(=O)[C@@H](NC(=O)[C@H](Cc1ccccc1)NC(=O)[C@H](CC(C)C)NC(=O)[C@H](CCCNC(=N)N)NC(=O)[C@H](CCC(N)=O)NC(=O)[C@H](CC(C)C)NC(=O)[C@H](CCCNC(=N)N)NC(=O)[C@H](CCCCN)NC(=O)[C@H](CCC(=O)O)NC(=O)[C@H](CC(C)C)NC(=O)[C@H](CCC(N)=O)NC(=O)[C@H](CCCCN)NC(=O)[C@H](CO)NC(=O)[C@H](CC(C)C)NC(=O)[C@H](CC(=O)O)NC(=O)[C@H](CO)NC(=O)[C@@H](NC(=O)[C@H](Cc1ccccc1)NC(=O)[C@@H](NC(=O)CNC(=O)[C@H](CCC(=O)O)NC(=O)CNC(=O)[C@@H](N)Cc1c[nH]cn1)[C@@H](C)O)[C@@H](C)O)[C@@H](C)CC)C(=O)N[C@@H](C)C(=O)NCC(=O)NCC(=O)N[C@@H](Cc1c[nH]cn1)C(=O)N[C@@H](CO)C(=O)N[C@@H](CO)C(=O)NCC(=O)N[C@@H](CCCCN)C(=O)N1CCC[C@H]1C(=O)N1CCC[C@H]1C(=O)N1CCC[C@H]1C(=O)N[C@@H](CCCCN)C(N)=O` [Ab P025] (H-HGEGTFTSDLSKQLEKRLQRLFIYWLIAGGHSSGKPPPK-NH2; N-terminus assumed), the EC50 at human GIP receptor (setting [3]) is 1.6 nM; on human GLP-1 receptor (setting [4]) it was 0.0016 nM; in assay [1] (setting [5]) it was 0.545 nM.
As to “16H7-Fab: monovalent Fab fragment (antigen-binding fragment) of 16H7 [Ab 16H7-Fab, reference compound]”, in assay [2], the “FGF21-like activity in Luciferase gene reporter assay (in words)” value was “inactive”.
For the compound `CC[C@H](C)[C@H](NC(=O)[C@H](Cc1ccccc1)NC(=O)[C@H](CC(C)C)NC(=O)[C@H](CCC(N)=O)NC(=O)[C@@H](NC(=O)[C@H](C)NC(=O)[C@H](CCC(=O)O)NC(=O)[C@H](CCC(=O)O)NC(=O)[C@H](CCC(=O)O)NC(=O)[C@H](CC(C)C)NC(=O)[C@H](CCC(N)=O)NC(=O)[C@H](CCCCN)NC(=O)[C@H](CO)NC(=O)[C@H](CC(C)C)NC(=O)[C@H](CC(=O)O)NC(=O)[C@H](CO)NC(=O)[C@@H](NC(=O)[C@H](Cc1ccccc1)NC(=O)[C@@H](NC(=O)CNC(=O)[C@H](CCC(=O)O)NC(=O)CNC(=O)[C@H](Cc1c[nH]cn1)NC(=O)CN)[C@@H](C)O)[C@@H](C)O)C(C)C)C(=O)N[C@@H](C)C(=O)N[C@@H](Cc1c[nH]c2ccccc12)C(=O)N[C@@H](CC(C)C)C(=O)N[C@H](C(=O)N[C@@H](CCCCN)C(N)=O)C(C)C` [Ab P041] (H-GHGEGTFTSDLSKQLEEEAVQLFIAWLVK-NH2; N-terminus assumed), the EC50 on human GIP receptor (setting [3]) is greater than 10 nM; on human GLP-1 receptor (setting [4]) it was 0.0325 nM; in assay [1] (setting [5]) it was greater than 10 nM.
As to `CC[C@H](C)[C@H](NC(=O)[C@H](Cc1ccccc1)NC(=O)[C@H](CC(C)C)NC(=O)[C@H](CCCNC(=N)N)NC(=O)[C@@H](NC(=O)[C@H](C)NC(=O)[C@H](CCC(=O)O)NC(=O)[C@H](CCC(=O)O)NC(=O)[C@H](CCC(=O)O)NC(=O)[C@H](CC(C)C)NC(=O)[C@H](CCC(N)=O)NC(=O)[C@H](CCCCN)NC(=O)[C@H](CO)NC(=O)[C@H](CCCCN)NC(=O)[C@H](CC(=O)O)NC(=O)[C@H](CO)NC(=O)[C@@H](NC(=O)[C@H](Cc1ccccc1)NC(=O)[C@@H](NC(=O)CNC(=O)[C@H](CCC(=O)O)NC(=O)CNC(=O)[C@H](Cc1c[nH]cn1)NC(=O)CN)[C@@H](C)O)[C@@H](C)O)C(C)C)C(=O)N[C@@H](CCC(=O)O)C(=O)N[C@@H](Cc1c[nH]c2ccccc12)C(=O)N[C@@H](CC(C)C)C(=O)N[C@@H](CCCCN)C(=O)N[C@@H](C)C(=O)NCC(=O)NCC(=O)N1CCC[C@H]1C(=O)N[C@@H](CO)C(=O)N[C@@H](CO)C(=O)NCC(=O)N[C@@H](C)C(=O)N1CCC[C@H]1C(=O)N1CCC[C@H]1C(=O)N1CCC[C@H]1C(=O)N[C@@H](CO)C(N)=O` [Ab P021] (H-GHGEGTFTSDKSKQLEEEAVRLFIEWLKAGGPSSGAPPPS-NH2), the EC50 is greater than 10 nM at human GIP receptor, 0.0276 nM on human GLP-1 receptor and greater than 10 nM in assay [1].
Turning to `CC[C@H](C)[C@H](NC(=O)[C@H](CC(C)C)NC(=O)[C@H](Cc1c[nH]c2ccccc12)NC(=O)[C@H](CC(C)C)NC(=O)[C@@H](NC(=O)[C@H](Cc1ccccc1)NC(=O)[C@H](CC(C)C)NC(=O)[C@H](CCCNC(=N)N)NC(=O)[C@@H](NC(=O)[C@H](CC(C)C)NC(=O)[C@H](CCCNC(=N)N)NC(=O)[C@H](CCCCN)NC(=O)[C@H](CCC(=O)O)NC(=O)[C@H](CC(C)C)NC(=O)[C@H](CCC(N)=O)NC(=O)[C@H](CCCCN)NC(=O)[C@H](CO)NC(=O)[C@H](CCCCN)NC(=O)[C@H](CC(=O)O)NC(=O)[C@H](CO)NC(=O)[C@@H](NC(=O)[C@H](Cc1ccccc1)NC(=O)[C@@H](NC(=O)CNC(=O)[C@H](CCC(=O)O)NC(=O)CNC(=O)[C@@H](N)Cc1c[nH]cn1)[C@@H](C)O)[C@@H](C)O)C(C)C)[C@@H](C)CC)C(=O)N[C@@H](C)C(=O)NCC(=O)NCC(=O)N[C@@H](Cc1c[nH]cn1)C(=O)N[C@@H](CO)C(=O)N[C@@H](CO)C(=O)NCC(=O)N[C@@H](CCCCN)C(=O)N1CCC[C@H]1C(=O)N1CCC[C@H]1C(=O)N1CCC[C@H]1C(=O)N[C@@H](CCCCN)C(N)=O` [Ab P023] (H-HGEGTFTSDKSKQLEKRLVRLFILWLIAGGHSSGKPPPK-NH2; N-terminus assumed), the values for the EC50 (at human GIP receptor (setting [3]); at human GLP-1 receptor (setting [4]); in assay [1] (setting [5])) were greater than 10 nM, 0.0017 nM and greater than 10 nM, respectively.

As usually defined, the EC50 is the concentration needed to bring the measured effect to its halfway point.
